Experimental data as given in patent publication US20170202792A1, “METHOD FOR TREATING TAU-ASSOCIATED DISEASES” (NATIONAL TAIWAN NORMAL UNIVERSITY, priority 2016, published 2017).

Columns and labels:
[1] = system: transgenic flies overexpressing tau protein driven by Eq-gal4 (Eq>tau); assay: In vivo tau toxicity, notal bristle number of flies; design: species or system Drosophila; details: 25 μM and 50 μM of compound (I) vs DMSO
Procedure: 10 Eq-ga14 flies were treated with DMSO as the control group, and transgenic flies overexpressing tau protein driven by Eq-ga14 (Eq>tau) were treated with DMSO, 25 μM of compound (I), and 50 μM of compound (I) respectively in each group of 10 flies. The number of notal bristle of the flies was then calculated.

3×Tg-AD mice = assay: Morris water maze (MWM) test; type: in vivo, mouse
Procedure: Hyperglycemia was induced by streptozotocin (STZ) to accelerated Alzheimer's disease progression of 6-month-old male transgenic 3×Tg−AD mice. Half of the 3×Tg−AD mice (n=30) received STZ (100 mg/kg) intraperitoneal injection at days 1, 2, 8, and 9 respectively as the high blood glucose group (HBG); another half of the 3×Tg-AD mice (n=30) received sodium citrate (0.1 M) at the same time points as the normal blood glucose group (NBG). Then, HBG and NBG were divided into two groups respectively to give four groups such as NBG-compound (I), HBG-compound (I), NBG-DMSO, and HBG-DMSO with n=15 in each group; wherein 0.25 mg/kg of compound (I) (in 30 μL) were intraperitoneal injected into those mice of NBG-compound (I) and HBG-compound (I) groups daily since day 14 for 28 days, and 30 μL of DMSO solvent were intraperitoneal injected into those mice of NBG-DMSO and HBG-DMSO groups daily since day 14 for 28 days. Both mouse body weight (BW) and blood glucose (BG) were monitored every week.
Morris water maze (MWM) was conducted to evaluate the learning and memory ability of the mice at days 34-42. At first, during the 4 training days, each of the mice received four trails a day, wherein each of the mice was released into the water from a starting point that randomly varied between trials, and the time required for each of the mice to find the hidden platform to escape from the water maze (escape latency) was calculated, and the curve of 4 training days represent the learning profile of mice. 24 hours after the final training trial, the mice underwent three testing trials to determine the time required to find the hidden platform as a measure of spatial learning acquisition. The probe trials were conducted 48 hours after the end of the testing trials to evaluate the long-term spatial memory, wherein each mouse was allowed to swim freely in a pool without platform for 60 seconds, and the duration of the mouse spent in the target quadrant (where the platform was originally disposed) was measured to represent the degree of memory consolidation after learning.

IL-6 and TNF-α = assay: Content analysis of IL-6 and TNF-α in serum (ELISA); type: in vivo, mouse; details: both normal and high blood glucose groups; 0.25 mg/kg i.p. daily
Procedure: Hyperglycemia was induced by streptozotocin (STZ) to accelerated Alzheimer's disease progression of 6-month-old male transgenic 3×Tg−AD mice. Half of the 3×Tg−AD mice (n=30) received STZ (100 mg/kg) intraperitoneal injection at days 1, 2, 8, and 9 respectively as the high blood glucose group (HBG); another half of the 3×Tg-AD mice (n=30) received sodium citrate (0.1 M) at the same time points as the normal blood glucose group (NBG). […] Both mouse body weight (BW) and blood glucose (BG) were monitored every week.
Additionally, the peripheral inflammatory cytokine in four groups of mice were evaluated. The collected blood was centrifuged (2000×g) for 20 minutes at 4° C., and the supernatant was analyzed using mouse TNF-α ELISA kit and IL-6 ELISA kit (R&D system). OD450 nm absorbance was detected by ELISA reader, and the concentration of IL-6 and of TNF-α were obtained by interpolating the standard curve and shown in FIG. 11, wherein *p<0.05. […]

[2] = system: mouse hippocampal primary culture cells; assay: Mouse hippocampal primary culture under tau toxicity (WT and GFX); type: cell-based; details: 10 nM WT and GFX; 0.1, 0.25, 0.5 μM compound (I), 12 hours
Procedure: The mouse hippocampal primary culture cells were isolated from the hippocampi of C57BL/6J mouse embryos at days 16-18. On days in vitro (DIV) 4 and 7, 2 μM of cytosine arabinoside was added to the culture medium for reducing the glial cell populations. On DIV 9, the cells were treated with 10 nM of Wortmannin (WT) and GF109203X (GFX) to induce tau hyperphosphorylation for mimicking an AD condition. 0, 0.1, 0.25, and 0.5 μM of compound (I) were then added to the cells at DIV 9. Cells were harvested 12 hours later for immunocytochemical staining with NeuN (for neuron) and MAP2 (for neurite morphology) antibodies.

Recombinant human GSK-3β = target: T1, Recombinant human GSK-3β (Homo sapiens, UniProt P49841); assay: GSK-3β kinase activity, ADP-Glo Kinase Assay; type: biochemical
T1 construct: purchased Promega V1991
Procedure: The ability of the compound (I) and SB216763 (compound (II)) for inhibiting GSK-3β activity is evaluated in the following paragraphs, wherein compound (II) is a known GSK-3β inhibitor in the art (Product No. 53442, Sigma). GSK-3β kinase activity was measured in the presence of the tested compounds (I) and (II) using ADP-Glo™ Kinase Assay system (Promega). Recombinant human GSK-3β (Product code V1991, Promega) was used as the enzyme source, and the GSK-3β substrate is derived from human muscle glycogen synthase 1 peptide ([…](pS)EDEEE) which corresponds to a region of glycogen synthase that is phosphorylated by GSK-3β. Reactions were performed at 30° C. for 30 minutes in 25 μL mixture that contained 25 μM ATP, 0.2 mg/mL GSK-3β substrate, 1 ng of GSK-3β, and serial dilutions of compound (I) or compound (II). Kinase activity data were measured as relative light units (RLU) directly correlated with the amount of ADP produced and FIG. 1 showing the analysis results.
The IC50 values of compound (I) and compound (II) were determined by using SigmaPLOT software.

[3] = system: SH-SY5Y tauRD-DsRed cells; assay: Neurite outgrowth in SH-SY5Y tauRD-DsRed cells (TUBB3 staining); type: cell-based, human; details: 10 μM, pre-treated 8 hours, doxycycline 7 days; untreated = 100%
Procedure: We used SH-SY5Y human cells expressing a DsRed-tagged proaggregation mutant (ΔK280) of the C-terminal repeat domain of tau (tauRD-Gln^244-Glu^372 of the longest tau^441 isoform). The recombinant tauRD-DsRed construct was under the control of a tetracycline-regulated, hybrid human cytomegalovirus (CMV)/TetO2 promoter that can be induced by adding doxycycline. The cell lines were grown in medium containing blasticidin (5 μg/mL) and hygromycin (100 μg/mL).
SH-SY5Y tauRD-DsRed cells were seeded in 6-well plates (1×10^5/well) in a medium containing all-trans retinoic acid (10 μM, Sigma). After 48 hours of incubation, cells were pre-treated with 10 μM Congo red and 10 μM compound (I) for 8 hours; after which, tauRD-DsRed expression was induced with 1μg/mL doxycycline for 7 days. The cells were then fixed in 4% paraformaldehyde, permeabilized with 0.1% Triton X-100, blocked in 3% BSA, and then stained with the primary antibody anti-TUBB3 (against neuronal Class III β-tubulin) (1:1000; Covance) and with a secondary anti-rabbit Alexa Fluor® 555 antibody (1:500; Molecular Probes). Nuclei were counterstained with 4′,6-diamidino-2-phenylindole (DAPI). The total outgrowth in the untreated, Congo red-treated, and compound (I)-treated cells was assessed using MetaXpress image acquisition and analysis software.

T1 sequence (P49841 whole entry): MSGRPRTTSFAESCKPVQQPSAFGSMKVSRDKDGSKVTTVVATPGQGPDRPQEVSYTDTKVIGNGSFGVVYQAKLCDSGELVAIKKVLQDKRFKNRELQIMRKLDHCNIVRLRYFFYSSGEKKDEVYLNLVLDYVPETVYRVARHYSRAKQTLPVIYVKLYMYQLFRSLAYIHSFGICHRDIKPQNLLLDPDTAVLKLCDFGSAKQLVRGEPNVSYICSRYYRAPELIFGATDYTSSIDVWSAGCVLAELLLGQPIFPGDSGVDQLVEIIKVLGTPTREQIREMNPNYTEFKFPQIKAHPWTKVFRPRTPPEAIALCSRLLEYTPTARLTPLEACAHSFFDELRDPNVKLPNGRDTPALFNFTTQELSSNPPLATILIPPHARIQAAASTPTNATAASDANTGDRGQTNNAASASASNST

SMILES: CCCCC/C=C\C/C=C\C/C=C\C/C=C\CCCC(=O)Nc1ccc(O)cc1 [compound (I), (5Z, 8Z, 11Z,14Z)-N-(4-Hydroxyphenyl)icosa-5 ,8 , 11,14-tetraen amide]
- number of notal bristle [1]: effectively reduced the notal bristle loss
- duration in target quadrant of probe trial in MWM (long-term memory) (3×Tg-AD mice; 0.25 mg/kg i.p. daily): ameliorate the long-term memory damages
- swimming velocity in MWM (3×Tg-AD mice; 4 training days, 0.25 mg/kg i.p. daily, among 4 groups): no difference
- escape latency of 4 training days in MWM (learning ability) (3×Tg-AD mice; high blood glucose groups, 0.25 mg/kg i.p. daily vs DMSO): better learning ability
- IL-6 level in serum (IL-6 and TNF-α): down-regulated
- TNF-α level in serum (IL-6 and TNF-α): down-regulated
- neuronal survival and neurite length [2]: alleviate the phenomena of low neuronal survival rate and short neurite length
- IC50 (Recombinant human GSK-3β; 25 μM ATP, 1 ng GSK-3β, 30° C., 30 minutes): 5.35 µM
- remaining activity at 0.018 µM (Recombinant human GSK-3β; concentration of compound (I) 0.018 μM, read-out: residual activity of GSK-3β): 69.6 ± 2%
- neurite growth relative to untreated cells [3]: 140%
